This is an account of results in PMC9866630, “Synthesis, Biological Evaluation and Molecular Modeling Studies of Naphthoquinone Sulfonamides and Sulfonate Ester Derivatives as P2X7 Inhibitors” (Molecules, 2023).

One may read the EC50 as the concentration giving half of the maximal effect. The term IC50 denotes the concentration needed to halve the response being measured. In general, inhibition refers to the change of the read-out against control, counted positive when it falls.

The test system of one series is P2X7R. Further details: method as in PMID 24314880. The conditions noted are these: read-out: EC50 for P2X7R activation; cited from earlier work.
The target of a further series is T1, mP2X7R (Mus musculus, UniProt Q9Z1M0).
T1 construct: P2X7 receptor expressed in peritoneal macrophages; endogenous in cells; host or cells: mouse peritoneal macrophages (primary)
T1 sequence (Q9Z1M0 1-595): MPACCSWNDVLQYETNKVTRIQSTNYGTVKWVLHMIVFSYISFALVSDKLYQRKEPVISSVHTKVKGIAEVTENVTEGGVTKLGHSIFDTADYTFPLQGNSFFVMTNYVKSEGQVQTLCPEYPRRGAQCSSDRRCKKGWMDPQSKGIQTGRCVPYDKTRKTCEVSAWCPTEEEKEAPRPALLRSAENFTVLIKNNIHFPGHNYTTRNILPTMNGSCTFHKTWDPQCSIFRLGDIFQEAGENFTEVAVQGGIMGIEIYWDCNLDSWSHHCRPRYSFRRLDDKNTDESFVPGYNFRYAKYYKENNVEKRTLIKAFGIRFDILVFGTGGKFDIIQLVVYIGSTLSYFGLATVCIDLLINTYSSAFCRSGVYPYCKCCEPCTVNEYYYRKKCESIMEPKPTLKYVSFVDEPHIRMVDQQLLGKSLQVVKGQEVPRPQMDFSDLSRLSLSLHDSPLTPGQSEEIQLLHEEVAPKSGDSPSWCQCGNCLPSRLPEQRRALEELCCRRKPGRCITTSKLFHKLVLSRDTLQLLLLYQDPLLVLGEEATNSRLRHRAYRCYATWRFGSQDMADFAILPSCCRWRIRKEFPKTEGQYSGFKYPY
Description: ATP-induced IL-1β release ELISA in mouse peritoneal macrophages. The class given is cell-based. The conditions noted are these: LPS priming, ATP 30 min. The protocol:
(§1) The monocytic THP-1 cell line used in this experiment was donated by the Laboratory of Applied Pharmacology, Institute of Drug Technology (Farmanguinhos), Rio de Janeiro, Brazil. Cells were plated at 2 × 10^5 cells/well in 96-well culture plates maintained in RPMI containing 10% fetal bovine serum (FBS), penicillin (100 U/mL), and streptomycin ([…]) in a humidified 5% CO2 atmosphere at 37 °C. Then, the cells were primed with Escherichia coli lipopolysaccharide (LPS, serotype 0127: B8) four hours before ATP stimulation for 30 min. Mouse peritoneal macrophages were primed with 10 ng/mL interferon-γ (IFN-γ) for 24 h and posteriorly stimulated with Escherichia coli lipopolysaccharide (LPS, serotype 0127: B8). The P2X7R antagonist A740003 and naphthoquinone derivatives were preincubated for 30 min before ATP addition. IL-1β was determined according to a standard kit (Bioscience, San Diego, CA, USA and Abcam, Cambridge Biomedical Campus, Cambridge, UK).
Background: An ELISA detects its analyte on a solid surface through an enzyme-linked reagent.

The next series concerns the target T2, hP2X7R (Homo sapiens, UniProt Q99572).
T2 construct: The monocytic THP-1 cell line used in this experiment was donated; endogenous in cells; host or cells: THP-1 human monocytic cell line
T2 sequence (Q99572 1-595): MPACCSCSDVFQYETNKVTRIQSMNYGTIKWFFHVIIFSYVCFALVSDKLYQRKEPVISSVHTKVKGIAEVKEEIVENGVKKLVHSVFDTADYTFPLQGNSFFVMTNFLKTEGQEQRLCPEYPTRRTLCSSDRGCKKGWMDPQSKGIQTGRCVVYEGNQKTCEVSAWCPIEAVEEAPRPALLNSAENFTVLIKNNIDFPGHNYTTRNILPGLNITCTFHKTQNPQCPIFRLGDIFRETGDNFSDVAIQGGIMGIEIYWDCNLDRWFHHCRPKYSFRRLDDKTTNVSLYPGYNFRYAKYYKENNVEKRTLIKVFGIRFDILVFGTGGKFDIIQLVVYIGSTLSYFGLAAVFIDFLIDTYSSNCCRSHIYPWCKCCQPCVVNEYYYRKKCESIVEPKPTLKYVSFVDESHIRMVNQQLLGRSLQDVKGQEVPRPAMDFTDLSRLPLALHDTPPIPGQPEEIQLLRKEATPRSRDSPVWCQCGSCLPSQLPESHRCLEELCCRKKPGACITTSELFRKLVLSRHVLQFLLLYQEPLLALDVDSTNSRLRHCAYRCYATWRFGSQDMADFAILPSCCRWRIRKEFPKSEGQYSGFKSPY
Nature of the series: ATP-induced IL-1β release ELISA in THP-1 cells. The class given is cell-based. The conditions noted are these: human THP-1 cells, LPS 4 h, ATP 30 min. Here is the method: as §1

A further series addresses T3, P2X7 receptor (Mus musculus, UniProt Q9Z1M0).
T3 construct: P2X7 receptor expressed in peritoneal macrophages; endogenous in cells; host or cells: mouse peritoneal macrophages (primary)
T3 sequence (Q9Z1M0 1-595): T1 sequence (Q9Z1M0 1-595)
Nature of the series: ATP-induced propidium iodide dye uptake assay (P2X7R-associated pore formation). The conditions noted are these: pretreatment 10 min, 5 mM ATP 15 min, peritoneal macrophages; for Inhibition of ATP-induced PI uptake / inhibition at 10 µM: 10 µM; for inhibition at 10 µM: P2X7, read-out: Inhibition of ATP-induced PI uptake; for IC50: read-out: IC50 ATP-induced PI uptake. Type of series: cell-based. The protocol: (§2) The animals used in these experiments were furnished by the animal breeding unit at Pavilion Hélio and Peggy Pereira at FIOCRUZ/IOC. The Institutional Animal Ethics Committee approved all experimental protocols under number L039-2016. Peritoneal macrophages were isolated from euthanized mice (weighing between 20 and 30 g) by injection of 10 mL phosphate-buffered saline (PBS) into the peritoneum of each animal. Then, the solution was completely removed from the peritoneal cavity using a syringe and transferred to 50 mL sterile tubes. Tubes were centrifuged at 1500 rpm for 5 min. The supernatant was discarded, and the pellet was resuspended in RPMI medium supplemented with 10% SFB and 1% antibiotic. The cells were counted and seeded in plates. After 40 min, the supernatant from each well was discarded to remove cells other than macrophages, and then RPMI medium was added. The macrophages were maintained in RPMI medium supplemented with 10% SFB and 1% antibiotic in a humid atmosphere at 37 °C containing 5% CO2 during the experiments.
To evaluate P2X7R-associated pore formation, a propidium iodide (PI) uptake assay was used. Peritoneal macrophages (3.0 × 10^5/well) were incubated with naphthoquinone derivatives and the inhibitor BBG (Brilliant Blue G, Sigma-Aldrich) at 10 µM and 750 nM, respectively, for 10 min. Subsequently, cells were exposed to 5 mM ATP for 15 min, and in the last 5 min, they were incubated with 1 µM PI dye. At the end of the incubation period, fluorescence was measured using a SpectraMax M5 spectrophotometer at 493/636 nm (excitation/emission). Compounds with inhibition values higher than 50% were selected to evaluate their inhibitory activity at varying concentrations. The inhibition curve was obtained using compounds at concentrations of 0.01 µM, 1 µM, 10 µM, 50 µM, and 100 µM. The controls and the procedure were the same.

For a further series, the system named is mouse peritoneal cells. Description: LDH release cytotoxicity assay. The class given is cell-based. The conditions noted are these: 24 h, increasing concentrations. Here is the method:
as §2
Peritoneal macrophages (3.0 × 10^5 cells/well) were grown in 96-well plates and kept in an oven at 37 °C under a 5% CO2 atmosphere. […] The assay was finished by the addition of the LDH kit’s reagent (Kit CytoTox 96® Non-Radioactive Cytotoxicity Assay, Promega, Madison, WI, USA), prepared according to the manufacturer’s instructions. After 30 min of reaction, a stop solution was added, and the absorbance was measured at 490 nm.

Another series deals with ATP-induced paw edema. Nature of the series: ATP-induced paw edema assay. The conditions noted are these: mice, intraperitoneal pretreatment, intra-plantar ATP, edema measured 30 min after ATP. Type of series: in vivo, Swiss Webster mice. The protocol: Paw edema in mice was induced by intra-plantar administration of ATP (10 mg/paw) for 30 min. Animals were pretreated intraperitoneally with the standard P2X7R antagonist A740003 (1 mg/kg) and the selected compounds PS01, PS02, PS03, PS09, and PS10 (1 mg/kg) for 60 min before ATP administration. Edema formation was determined with a mouse plethysmometer (UGO Basile, Gemonio, Italy) before ATP injection compared with saline injection in the contralateral paw edema.

On to `Nc1ncnc2c1ncn2[C@@H]1O[C@H](COP(=O)(O)OP(=O)(O)OP(=O)(O)O)[C@@H](O)[C@H]1O` [ATP, Adenosine triphosphate], for which the EC50 in the series on P2X7R is above 100000 nM.

As to `CCOc1ccc(Nc2ccc(/C(=C3C=C/C(=[N+](/CC)Cc4cccc(S(=O)(=O)[O-])c4)C=C/3C)c3ccc(N(CC)Cc4cccc(S(=O)(=O)O)c4)cc3C)cc2)cc1` [BBG, Brilliant Blue G, reference compound], the IC50 came to 24 ± 3 µM against mP2X7R and 16 ± 2 µM on hP2X7R.

Regarding `COc1ccc(CC(=O)NC(N=C(NC#N)Nc2cccc3ncccc23)C(C)(C)C)cc1OC` (stereo not shown) [Compound A740003, reference compound], the “Inhibition of ATP-induced PI uptake” value at P2X7 receptor was “inhibited the ATP effect”. Moreover, the values for the IC50 against mP2X7R and on hP2X7R were 0.9 ± 0.1 µM and 0.85 ± 0.1 µM, respectively.

For `O=C1C=C(Nc2ccc(NS(=O)(=O)c3ccccc3)cc2)C(=O)c2ccccc21` [PS01], in the series on mouse peritoneal cells, the “IC50 values (CC50), LDH activity” value amounted to 201000 ± 11000 nM. For the same molecule, the “ID50 ATP−induced edema formation” value in the series on ATP-induced paw edema amounted to 0.128 ± 0.016 µg/kg. Further, the inhibition at 10 µM at P2X7 receptor is above 50%. The IC50 at P2X7 receptor was found to be 1000 ± 100 nM; at mP2X7R, 5 ± 1 µM; on hP2X7R it was 4 ± 2 µM.

On to `O=C1C=C(Nc2ccc(NS(=O)(=O)c3ccc(F)cc3)cc2)C(=O)c2ccccc21` [PS02], for which the “IC50 values (CC50), LDH activity” value in the series on mouse peritoneal cells came to 298000 ± 16000 nM. The “ID50 ATP−induced edema formation” value with ATP-induced paw edema was 0.093 ± 0.008 µg/kg. In addition, the inhibition at 10 µM on P2X7 receptor was above 50%. Further, the IC50 was found to be 300 ± 3 nM at P2X7 receptor, 3 ± 0.2 µM against mP2X7R and 3 ± 0.3 µM against hP2X7R.

Take `Cc1ccc(S(=O)(=O)Nc2ccc(NC3=CC(=O)c4ccccc4C3=O)cc2)cc1` [PS03]: the “IC50 values (CC50), LDH activity” value in the series on mouse peritoneal cells is 322000 ± 20000 nM. Besides, in the series on ATP-induced paw edema, the “ID50 ATP−induced edema formation” value came to 0.067 ± 0.005 µg/kg. Moreover, the inhibition at 10 µM at P2X7 receptor is above 50%. The IC50 at P2X7 receptor came out at 70 ± 3 nM; against mP2X7R, 1.5 ± 0.4 µM; on hP2X7R, 1 ± 0.4 µM.

Regarding `O=C1C=C(Nc2ccc(NS(=O)(=O)c3ccc4ccccc4c3)cc2)C(=O)c2ccccc21` [PS04], on P2X7 receptor, the “Inhibition of ATP-induced PI uptake” value was “did not show inhibitory effects”.

As to `O=C1C=C(Nc2ccc(NS(=O)(=O)c3ccc([N+](=O)[O-])cc3)cc2)C(=O)c2ccccc21` [PS05], the “Inhibition of ATP-induced PI uptake” value at P2X7 receptor is given as “did not show inhibitory effects”.

`O=C1C(Cl)=C(Nc2ccc(NS(=O)(=O)c3ccccc3)cc2)C(=O)c2ccccc21` [PS06]: the “Inhibition of ATP-induced PI uptake” value on P2X7 receptor is on record as “did not show inhibitory effects”.

For the molecule `Cc1ccc(S(=O)(=O)Nc2ccc(NC3=C(Cl)C(=O)c4ccccc4C3=O)cc2)cc1` [PS07], on P2X7 receptor, the “Inhibition of ATP-induced PI uptake” value is “did not show inhibitory effects”.

As to `O=C1C(Cl)=C(Nc2ccc(NS(=O)(=O)c3ccc(F)cc3)cc2)C(=O)c2ccccc21` [PS08], the “Inhibition of ATP-induced PI uptake” value on P2X7 receptor is recorded as “did not show inhibitory effects”.

Take `O=C1C(Cl)=C(Nc2ccc(NS(=O)(=O)c3ccc4ccccc4c3)cc2)C(=O)c2ccccc21` [PS09]: in the series on mouse peritoneal cells, the “IC50 values (CC50), LDH activity” value worked out at 401000 ± 18000 nM. Also, the “ID50 ATP−induced edema formation” value in the series on ATP-induced paw edema came out at 0.0098 ± 0.0007 µg/kg. Further, the inhibition at 10 µM on P2X7 receptor is above 50%. For the same molecule, the IC50 on P2X7 receptor came to 8 ± 0.1 nM; at mP2X7R it was 0.09 ± 0.01 µM; against hP2X7R it was 0.02 ± 0.002 µM.

For `O=C1C(Cl)=C(Nc2ccc(NS(=O)(=O)c3ccc([N+](=O)[O-])cc3)cc2)C(=O)c2ccccc21` [PS10], the “IC50 values (CC50), LDH activity” value in the series on mouse peritoneal cells worked out at 351000 ± 21000 nM. In addition, in the series on ATP-induced paw edema, the “ID50 ATP−induced edema formation” value worked out at 0.0136 ± 0.016 µg/kg. On P2X7 receptor, the inhibition at 10 µM was above 50%. In addition, the IC50 on P2X7 receptor stood at 10 ± 2 nM; against mP2X7R, 0.7 ± 0.1 µM; on hP2X7R it was 0.3 ± 0.06 µM.

In the case of `NC1=CC(=O)c2cccc(OS(=O)(=O)c3ccccc3)c2C1=O` [PS11], the “Inhibition of ATP-induced PI uptake” value at P2X7 receptor is listed as “did not show inhibitory effects”.

On to `Cc1ccc(S(=O)(=O)Oc2cccc3c2C(=O)C(N)=CC3=O)cc1` [PS12], for which the “Inhibition of ATP-induced PI uptake” value on P2X7 receptor is recorded as “did not show inhibitory effects”.

Consider `NC1=CC(=O)c2cccc(OS(=O)(=O)c3ccc(F)cc3)c2C1=O` [PS13], for which, at P2X7 receptor, the “Inhibition of ATP-induced PI uptake” value is reported as “did not show inhibitory effects”.

On to `NC1=CC(=O)c2cccc(OS(=O)(=O)c3ccc4ccccc4c3)c2C1=O` [PS14], for which the “Inhibition of ATP-induced PI uptake” value at P2X7 receptor is reported as “did not show inhibitory effects”.

As for `NC1=CC(=O)c2cccc(OS(=O)(=O)c3ccc([N+](=O)[O-])cc3)c2C1=O` [PS15], the “Inhibition of ATP-induced PI uptake” value at P2X7 receptor is given as “did not show inhibitory effects”.
